The test system of experiment [1] is Mycobacterium tuberculosis. Kind of experiment: Antitubercular activity against STR/INH/RIF/EMB/ETH-resistant Mycobacterium tuberculosis IC1 assessed as inhibition of bacterial growth measured after 3 weeks by broth microdilution method. It counts as functional. Particulars: IC1, 504 h. For orientation: In broth dilution the organism is exposed to a series of concentrations in liquid medium.

Experiment [2] deals with Mycobacterium tuberculosis. The experiment in a line: microbe, parasite or virus in culture. To be noted: IC2, 504 h.

For `NNC(=O)c1ccncc1` [ISONIAZID], the MIC90 in experiment [1] and in experiment [2] was more than 0.2 µg/mL in each case.

Source of the values: ChEMBL document CHEMBL5335768, “Expanding the knowledge around antitubercular 5-(2-aminothiazol-4-yl)isoxazole-3-carboxamides: Hit-to-lead optimization and release of a novel antitubercular chemotype via scaffold derivatization” (Eur J Med Chem, 2023).
